Measured values published in patent US20250092056A1, “URACIL DERIVATIVES HAVING VIRUS REPLICATION INHIBITORY ACTIVITY AND PHARMACEUTICAL COMPOSITION COMPRISING THE SAME” (Shionogi & Co., Ltd., priority 2022, published 2025).
Read-outs that look alike come from different tables or passages of the source.

Assays:
[1] = tested on: SARS-CoV-2; test: Cytopathic effect (CPE) suppression effect confirmation test using HEK293T/ACE2-TMPRSS2 cells; assay type: cell-based; settings: Severe acute respiratory syndrome coronavirus 2, HEK-293T
[2] = target: Recombinant SARS-CoV-2 3CL Protease (Severe acute respiratory syndrome coronavirus 2 (2019-nCoV) (SARS-CoV-2), UniProt P0DTD1); test: biochemical; assay type: biochemical; settings: 50% SARS-CoV-2 3CL protease inhibitory concentration; read-out: IC50
[3] = 50% SARS-CoV-2 infected cell death inhibitory concentration, HEK293T/ACE2-TMPRSS2 cells, read-out: EC50
[4] = 72 h, read-out: EC50 (50% SARS-CoV-2 infected cell death inhibitory concentration), HEK293T/ACE2-TMPRSS2 cells, CPE suppression, CellTiter-Glo 2.0 after 3 days culture
[5] = 72 h, read-out: EC50 (50% SARS-CoV-2 infected cell death inhibitory concentration), class, HEK293T/ACE2-TMPRSS2 cells, CPE suppression, CellTiter-Glo 2.0 after 3 days culture

| SMILES | EC50 [1, 3] | IC50 [2] | EC50 [1, 4] | EC50 [1, 5] |
| --- | --- | --- | --- | --- |
| N#CCn1c(C2CCC2)c(-c2ccc(F)c(Cl)c2)c(=O)n(-c2cncc(Cl)c2)c1=O [Compound I-395] | < 100 nM | < 10 nM | – | – |
| Cc1cncc(-n2c(=O)c(Cc3cc(F)c(F)c(F)c3)c(-c3ccc(C)c(C)c3)n(C(C)C#N)c2=O)c1 (racemic) [Compound I-057] | – | 9.8 nM | 29 nM | – |
| CC(=O)OCC(=O)Cn1c(C)c(-c2ccc(F)c(Cl)c2)c(=O)n(-c2cncc(Cl)c2)c1=O [Compound I-444] | 100 to 1000 nM | > 100 nM | – | – |
| Cc1cc(-n2c(=O)c(-c3cc(F)c(F)c(Cl)c3)c(N3CC4(C3)CC(F)(F)C4)n(CC#N)c2=O)cc(=O)[nH]1 [Compound I-033] | – | < 10 nM | – | 100 to 1000 nM |
| C[C@@H](C#N)n1c(N2CC[C@@](O)(C(F)F)C2)c(-c2ccc(F)c(C#N)c2)c(=O)n(-c2cncc(Cl)c2)c1=O (single isomer, unassigned) [Compound I-427] | < 100 nM | < 10 nM | – | – |
| N#CCn1c(N2Cc3ccccc3C2)c(C(=O)c2cc(F)c(F)c(F)c2)c(=O)n(-c2cncc(Cl)c2)c1=O [Compound I-165] | – | 3800 nM | 228 nM | – |
| N#CCn1c(N2CC[C@@](O)(C(F)F)C2)c(-c2ccc(F)c(Cl)c2)c(=O)n(-c2cncc(Cl)c2)c1=O (single isomer, unassigned) [Compound I-238] | – | 0.97 nM | 4.62 nM | – |
| N#CCn1c(N2CC3(CC3)C2)c(-c2ccc(F)c(Cl)c2)c(=O)n(-c2cncc(Cl)c2)c1=O [Compound I-078] | – | < 10 nM | – | < 100 nM |
| Cc1cncc(-n2c(=O)c(Cc3cc(F)c(F)c(F)c3)c(N3C[C@H]4CN(C)C[C@H]4C3)n(CC#N)c2=O)c1 [Compound I-117] | – | < 10 nM | – | < 100 nM |
| N#CCn1c(N2CC(O)(c3ncccn3)C2)c(-c2ccc(F)c(Cl)c2)c(=O)n(-c2cncc(OC(F)F)n2)c1=O [Compound I-378] | < 100 nM | < 10 nM | – | – |
| N#CCn1c(C2CC(O)C2)c(-c2ccc(F)c(Cl)c2)c(=O)n(-c2cncc(Cl)c2)c1=O (stereo not shown) [Compound I-371] | < 100 nM | < 10 nM | – | – |
| Cc1cc(-n2c(=O)c(-c3ccc(F)c(Cl)c3)c(C#CC3CC3)n(CC#N)c2=O)cc(=O)[nH]1 [Compound I-184] | – | > 100 nM | – | 100 to 1000 nM |
| N#CCn1c(N2CC3(CCOC3)C2)c(-c2cccc(C(F)F)c2)c(=O)n(-c2cncc(Cl)c2)c1=O [Compound I-177] | – | < 10 nM | – | < 100 nM |
| N#CCn1c(N2CCC(F)(F)CC2)c(-c2csc3ccccc23)c(=O)n(-c2cncc(Cl)c2)c1=O [Compound I-329] | < 100 nM | < 10 nM | – | – |
